According to patent US20120202849A1, “PHARMACEUTICAL COMPOSITIONS FOR THE TREATMENT/PROPHYLAXIS OF NON-ALCOHOLIC FATTY LIVER DISEASE” (priority 2009, published 2012):

Experiments:
[1] = test system: fructose induced fatty liver; assay: Histopathological examination of NAFLD induced liver tissue; format: in vivo, Wistar rats; conditions: after 14 days; monotherapy or high dose combination: HCQ 160 mg/kg p.o., ATV 8 mg/kg p.o., MET 500 mg/kg
Protocol: In this experiment 66 Wistar rats weighing 150-200 g of either sex were divided randomly into 11 groups consisting of six rats each. Group 1 (normal control) consisted of normal rats that neither received fructose nor any drug, Group 2 served as NAFLD induced control (NAFLD was induced in rats by replacing water with 10% fructose solution for two weeks) which received vehicle orally, Group 3 was NAFLD induced and treated with HCQ (160 mg/kg), Group 4 was NAFLD induced and treated with ATV (8 mg/kg), Group 5 was NAFLD induced and treated with MET (500 mg/kg), Group 6 was NAFLD induced and treated with low dose combination of HCQ (80 mg/kg) and MET (250 mg/kg). Group 7 was NAFLD induced and treated with high dose combination of HCQ (160 mg/kg) and MET (500 mg/kg). Group 8 was NAFLD induced and treated with low dose combination of HCQ (80 mg/kg) and ATV (4 mg/kg). Group 9 was NAFLD induced and treated with high dose combination of HCQ (160 mg/kg) and ATV (8 mg/kg). Group 10 was NAFLD induced and treated with low dose combination of ATV (4 mg/kg), HCQ (80 mg/kg) and MET (250 mg/kg) whereas Group 11 was NAFLD induced and treated with high dose combination of ATV (8 mg/kg), HCQ (160 mg/kg) and MET (500 mg/kg). The study drugs suspended in vehicle [0.1% w/v suspension of Tween 80 and carboxymethylcellulose (CMC) in water] were administered for 14 days. After 14 days treatment, all the animals were sacrificed under chloroform anesthesia and blood was collected for determination of blood glucose levels, triglyceride levels, SGPT, SGOT, alkaline phosphatase and total cholesterol using autoanalyser (Microlab 2000) Liver index was also calculated based upon the body weight and liver weight. At the end of the therapy histopathological evaluations were performed.

[2] = test system: fructose induced fatty liver; assay: Fructose induced fatty liver (NAFLD) in rats: biochemical parameters, body and liver weight, liver index after 14 days oral treatment; format: in vivo, Wistar rats; conditions: monotherapy or high dose combination: HCQ 160 mg/kg, ATV 8 mg/kg, MET 500 mg/kg, Mean ± S.D.; for Alk. PO4: alkaline phosphatase; for Glucose: blood; for Liver Index: calculated from body weight and liver weight; for TC (Total Cholesterol) / TG (Triglyceride): serum
Excerpt: The study was based on the experiment on rats with fatty liver induced by fructose feeding and given oral doses of different strengths of the corresponding drug samples for 14 days. It was concluded from the study that the protection given by the combination therapy is more as compared to monotherapy. […] In this experiment 66 Wistar rats weighing 150-200 g of either sex were divided randomly into 11 groups consisting of six rats each. […] Group 7 was NAFLD induced and treated with high dose combination of HCQ (160 mg/kg) and MET (500 mg/kg). Group 8 was NAFLD induced and treated with low dose combination of HCQ (80 mg/kg) and ATV (4 mg/kg). Group 9 was NAFLD induced and treated with high dose combination of HCQ (160 mg/kg) and ATV (8 mg/kg). Group 10 was NAFLD induced and treated with low dose combination of ATV (4 mg/kg), HCQ (80 mg/kg) and MET (250 mg/kg) whereas Group 11 was NAFLD induced and treated with high dose combination of ATV (8 mg/kg), HCQ (160 mg/kg) and MET (500 mg/kg). […] At the end of the therapy histopathological evaluations were performed.

[3] = patients treated with hydroxychloroquine; cited from earlier work
[4] = patients on combined insulin and hydroxychloroquine therapy; average; cited from earlier work

SMILES | Histopathological examination of liver [1] | Alk. PO4 [2] | Glucose [2] | Liver Index [2] | SGOT [2] | SGPT [2] | TC (Total Cholesterol) [2] | TG (Triglyceride) [2] | Liver Weight [2] | Decrease in serum levels of cholesterol [3] | Reduction of daily insulin dose [4]
CC(C)c1c(C(=O)Nc2ccccc2)c(-c2ccccc2)c(-c2ccc(F)cc2)n1CC[C@@H](O)C[C@@H](O)CC(=O)O [ATV, Atorvastatin] | the degree of hepatic injury including steatosis and fatty infiltration were attenuated | 54.66 ± 2.58 U/L | 159.33 ± 9.07 mg/dL | 3.20 ± 0.24 | 114.00 ± 3.50 U/L | 37.5 ± 2.42 U/L | 137.66 ± 5.20 mg/dL | 463.33 ± 12.12 mg/dL |  |  | 
CCN(CCO)CCCC(C)Nc1ccnc2cc(Cl)ccc12 (stereo not shown) [HCQ, Hydroxychloroquine] | did not show any recovery from fatty change | 63.16 ± 4.07 U/L | 157.16 ± 7.93 mg/dL | 4.53 ± 0.10 | 137.83 ± 10.59 U/L | 44.83 ± 2.78 U/L | 159.66 ± 10.23 mg/dL | 556.66 ± 12.21 mg/dL | 7.64 ± 0.33 g | approximately 10% | 30%
CN(C)C(=N)N=C(N)N [MET, Metformin] | Liver cells showed regeneration and repair in the form of nucleolation and absence of coarse fat vacuoles | 61 ± 6.32 U/L | 125.16 ± 6.24 mg/dL | 4.50 ± 0.30 | 132.33 ± 8.98 U/L | 43.66 ± 7.33 U/L | 155.66 ± 10.85 mg/dL | 516.33 ± 56.25 mg/dL | 7.63 ± 0.30 g |  | 
